Reference: US11034839B2, “Compounds, linked with haptens, for the detection of senescent cells” (THE UNIVERSITY OF MANCHESTER, priority 2016, dated 2021)
Entries after “also recorded” stand apart in the source; their conditions may differ.

Key:
lipofuscin = experiment: Immunofluorescence staining / lipofuscin autofluorescence control; assay type: cell-based; conditions: fluorescence microscopy, FIG. 9
Procedure: In inventive example 6 the derivative LG13 was used to detect lipofuscin rich cells in cell spreads from cell culture by immunofluorescence staining.
Immunofluorescence staining protocol cellsor ounted on coverslips • 1. Wash ×1 in TBS for 5 min at RT. • 2. Wash ×1 in EtOH 50% for 5 min at RT. • 3. Wash ×1 EtOH 70% for 5 min at RT. • 4. Incubate with the compound (LG13) at RT. A drop of freshly prepared compound (LG13) is placed on a clean slide with the use of a syringe that carrying a 2 mm filter (see also FIG. 1 from Evangelou & Gorgoulis, 2016). Then the cover-slip with the cells is turned down (using thin edged forceps) on the slide and attached on the dye drop in a way that the material faces down the drop on the slide (All incubations were performed in chambers (cover slips) and coplin jars (glass slides) to avoid exsiccation of the material), (see also FIG. 1 from Evangelou & Gorgoulis, 2016). • 5. The staining reaction is monitored under the light microscope until detection of the signal (average time 5-8 min). • 6. Wash ×2 in EtOH 50%. • 7. Repeat washing ×2 in fresh EtOH 50%. • 8. Wash ×2 in TBS for 30 sec and ×1 for 5 min at RT. • 9. Incubate with 0.5% Triton X/TBS for 3 min at RT. • 10. Wash ×1 in TBS for 5 min at RT. • 11. […] Observe under the fluorescence microscope

[1] = tested on: senescent cells in biological systems with established senescence; experiment: Quantitative analysis and concordance of SA-b-gal, SBB and GL13 staining; conditions: FIG. 15
[2] = tested on: HeLa cancer cells and near normal Li-Fraumeni fibroblasts; experiment: False-positive studies (cell confluency, serum starvation); assay type: cell-based, human
Description: The in vitro models comprised seven cellular systems. […] The same cellular system was used at early passages that underwent SIPS upon y-irradiation and was compared in relation to non-irradiated counterparts. Another set of models comprised two inducible Saos2 Tet-ON osteosarcoma cell lines carrying p53 and p21^WAF1/Cip1, respectively, two well established effectors of senescence (Georgakopoulou et al., 2013; Galanos et al., 2016). Finally, the U2OS-E2F1 ER, U205-Cdt1 Tet-ON and HBECs-Cdc6 Tet-ON inducible systems that undergo SIPS due to oncogenic stress signals were also utilized (Petrakis et al., 2016; Liontos et al., 2007; Liontos et al., 2009). Parental cell lines were obtained either directly from ATCC or from collaborating laboratories that generated them. In addition, the human cancer cell line HeLa and near normal Li-Fraumeni fibroblasts (Galanos et al., 2016) were also employed as control cell lines for the specificity of staining of the SBB compounds.

Question: What does the source list for `CC1(COC(=O)CCCC[C@H]2SC[C@H]3NC(=O)N[C@H]32)Nc2cccc3c(/N=N/c4ccc(/N=N/c5ccccc5)c5ccccc45)ccc(c23)N1` (stereo partly drawn) [LG13, (2-methyl-6-((E)-(4-((E)-phenyldiazenyl)naphthalen-1-yl)diazenyl)-2,3-dihydro-1H-perimidin-2-yl)methyl 5-((3aR,4R,6aS)-2-oxohexahydro-1H-thieno[3,4-d]imidazol-4-yl)pentanoate]?
Answer: effect of staining on lipofuscin autofluorescence (lipofuscin): quenched; also recorded: “masks” the autofluorescence ability of lipofuscin; specificity compared among SA-b-gal, SBB and GL13 staining [1]: concordance of specificity; staining under cell confluency ([2]; HeLa and Li-Fraumeni fibroblasts, FIG. 17): Negative; staining of serum starved HeLa cells after formalin fixing and paraffin embedding ([2]; cell block, FIG. 18): negative; false-positive staining due to serum starvation and cell confluency ([2]; compared with SA-b-gal, FIGS. 17 and 18): deprived of the false-positive staining disadvantages; staining after serum starvation ([2]; in comparison to SA-β-gal that gave positive signal, FIG. 18): Negative
